Measurements from article PMC11729550, “Discovery of indole analogue Tc3 as a potent pyroptosis inducer and identification of its combination strategy against hepatic carcinoma” (Theranostics, 2025).

Experiments:
CD8^+ T cells = assay: Fluorescence staining and flow cytometry of tumor-infiltrating cells; type: in vivo, C57 BL/6N mice; conditions: Hepa1-6 CDXs, 10 mg/kg
Experimental: The lymphocytes were isolated from the tumors and blocked by purified CD16/32 antibody. Next, the cells were stained with fluorescent-conjugated antibodies (FITC-CD11b, APC-F4/80, PE-CD86, Alexa Flour® 700-CD206, APC-Ly6G, FITC-CD45, APC-CD8a, Pacific Blue^TM-IFN-γ). The fluorescence intensity was measured by a FACS Calibur, and data were analyzed with FlowJo software.
The mice tumor tissues were embedded into the OCT reagent and sliced into 10 μm sections via the freezing microtome. The sections were fixed by paraformaldehyde, blocked by 3% bovine serum albumin (BSA, Beyotime, ST2254), and incubated with the primary antibodies overnight. In the second day, the sections were incubated with the fluorescent‐conjugated antibodies and 4′,6‐diamidino‐2‐phenylindole (DAPI, Solarbio, C0065) for nuclei. The tissue fluorescent images were captured by a confocal microscope (Leica, TCS SP8) and analyzed by imageJ software.

HepG2 and SK-Hep1 cells = assay: LDH release assay; type: cell-based, human; conditions: 0-4 μM, three days
Experimental: The hepatic carcinoma cells were seeded in 96-well plates and treated with indole analogues for three days. Of note, the compounds were added into DMEM medium supplemented with 1% FBS. The cellular supernatant was collected for LDH release detection by using LDH cytotoxicity assay kit (Beyotime, C0016). Statistical analysis was combined with the cell viability data tested by WST-1 cell proliferation and cytotoxicity assay kit (Beyotime, C0035).

[1] = Hydrolytic stability in phosphate buffer (HPLC); type: physicochemical; conditions: phosphate buffer of PH 7.4 over 150 minutes
Experimental: The stability of Tc3 was evaluated by an UltiMate 3000 Dual-Gradient HPLC system (Sunnyvale, CA, USA). The samples of solution were chromatographed on ZORBAX Eclipse XDB-C18 column(5 µm, 4.6 × 150 mm, Agela Technologies), using an eluent composed of: water (95%) and acetonitrile (5%) at a flow rate of 1.0 mL/min. […] The hydrolysis of Tc3 was carried out in a phosphate buffer of PH 7.4 (50 ug/ml, initial concentration of 5 mM in methanol) over 150 minutes.

CC(C)[C@H](N)C(=O)NCCCn1cc(/C=C2\S/C(=N\c3ccc(N4CCOCC4)cc3)N(Cc3ccc(F)cc3)C2=O)c2ccccc21 [Tc3]
infiltration of activated CD8^+ T cells in tumors (CD8^+ T cells): significantly promoted | LDH release levels (HepG2 and SK-Hep1 cells): highest LDH release | stability to hydrolysis [1]: no changes
